# Test results from patent US12486276B2, “5-(2,5-difluorophenyl)pyrrolidin-1-yl)-3-(1H-pyrazol-1-yl)pyrazolo[1,5-a]pyrimidine derivatives and related compounds as Trk kinase inhibitors for treating cancer” (Pyramid Biosciences, Inc., priority 2017, dated 2025).
# Molecular target: T1, TrkA kinase domain (Homo sapiens, UniProt P04629)
# T1 construct: TrkA kinase domain was supplied by SignalChem; purchased SignalChem
# Assay: TrkA Kinase Assay (Trk kinase biochemical assay)
# Conditions: 33 pM TrkA, 100 nM peptide substrate, 10 µM ATP; 15 minute preincubation; read-out: TrkA WT IC50
# Description: Example 33: TrkA Kinase Assay Protocol
# TrkA kinase domain was supplied by SignalChem. Ulight PolyGT peptide substrate and Europium labeled W1024 antiphosphotyrosine antibody were supplied by Perkin Elmer. Assay buffer contained 50 mM HEPES, 10 mM MgCb, 1 mM EGTA, 2 mM DTT, 0.1 mg/mL BSA, and 0.005% w/v tween 20, pH 7.5. Enzyme dilution buffer was made by supplementing assay buffer with 25% w/v glycerol. Antibody dilution buffer contained 20 mM Tris, 137 mM NaCl, and 0.05% w/v tween 20, pH 8.0. Buffers were prepared at room temperature. Enzyme solutions were made on ice, while other solutions were made at room temperature and all subsequent assay steps were performed at room temperature. The TrkA stock solution (0.1 mg/mL) was diluted 156× in enzyme dilution buffer and then 100× in assay buffer. Five pL/well of enzyme solution was added to the assay plate (Greiner black 384-well nonbinding plate), with buffer containing no enzyme added to negative control wells. Test compounds were serially diluted in DMSO at 300× final assay concentration. One μL of each test compound dilution was mixed with 99 pL assay buffer plus ATP (30 μM) and five pL of each test compound-ATP solution was added to w¾13s containing enzyme. Positive control wells contained enzyme and substrates but no test compounds. After a 15 minute enzyme-test compound preincubation, five pL of substrate diluted in assay buffer was added to all wells. Final assay concentrations were 33 pM TrkA, 100 nM peptide substrate, and […]. After a five minute reaction, five pL of 80 mM EDTA was added, followed five minutes later by five pL two nM antibody solution. The ratio of fluorescence at 665 nm vs. 615 nM in each well was determined using a Tecan Infinite Pro F200 plate reader. For each test compound well, percent inhibition w % s calculated (% inliib. =100-100*(test value-neg. control)/(pos. control-neg. control)). Percent inhibition values were fit to a four parameter logistic to determine ICso values for each test compound.
# T1 sequence (P04629 510-781 limits assumed): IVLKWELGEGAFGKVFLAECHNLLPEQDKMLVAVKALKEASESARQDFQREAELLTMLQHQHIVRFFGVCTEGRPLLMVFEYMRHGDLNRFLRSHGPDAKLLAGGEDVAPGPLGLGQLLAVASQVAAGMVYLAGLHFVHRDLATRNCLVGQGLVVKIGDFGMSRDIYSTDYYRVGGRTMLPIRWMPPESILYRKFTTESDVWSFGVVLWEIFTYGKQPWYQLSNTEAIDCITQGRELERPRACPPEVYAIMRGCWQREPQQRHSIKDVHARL
row,SMILES,IC50
1,"Fc1ccc(F)c([C@H]2CCCN2c2ccn3ncc(-n4cc(C5CCOCC5)cn4)c3n2)c1 [I-187, (R)-5-(2-(2,5-difluorophenyi)pyrrolidin-1-yl)-3-(4-(tetrahydro-2H-pyran-4-yl)-1H-pyrazol-1-yl)pyrazolo[1,5-a]pyrimidine]",< 0.01 µM
2,Fc1ccc(F)c([C@H]2CCCN2c2ccn3ncc(-n4cc(C5=CCOC5)cn4)c3n2)c1 [I-188],< 0.01 µM
3,Fc1ccc(F)c([C@H]2CCCN2c2ccn3ncc(-n4cc(-c5ccoc5)cn4)c3n2)c1 [I-189],< 0.01 µM
4,Fc1cncc(-c2cnn(-c3cnn4ccc(N5CCC[C@@H]5c5cc(F)ccc5F)nc34)c2)c1 [I-190],< 0.01 µM
5,N#Cc1cncc(-c2cnn(-c3cnn4ccc(N5CCC[C@@H]5c5cc(F)ccc5F)nc34)c2)c1 [I-191],< 0.01 µM
6,Fc1ccc(F)c([C@H]2CCCN2c2ccn3ncc(-n4cc(-c5cccnc5F)cn4)c3n2)c1 [I-194],< 0.01 µM
7,Fc1ccc(F)c([C@H]2CCCN2c2ccn3ncc(-n4cc(-c5ccnnc5)cn4)c3n2)c1 [I-199],< 0.01 µM
8,COc1ccc(-c2cnn(-c3cnn4ccc(N5CCC[C@@H]5c5cc(F)ccc5F)nc34)c2)cn1 [I-200],< 0.01 µM
9,COc1ccncc1-c1cnn(-c2cnn3ccc(N4CCC[C@@H]4c4cc(F)ccc4F)nc23)c1 [I-201],< 0.01 µM
10,COc1ncccc1-c1cnn(-c2cnn3ccc(N4CCC[C@@H]4c4cc(F)ccc4F)nc23)c1 [I-202],< 0.01 µM
11,NC(=O)c1cnccc1-c1cnn(-c2cnn3ccc(N4CCC[C@@H]4c4cc(F)ccc4F)nc23)c1 [I-203],< 0.01 µM
12,COc1cnccc1-c1cnn(-c2cnn3ccc(N4CCC[C@@H]4c4cc(F)ccc4F)nc23)c1 [I-204],< 0.01 µM
13,Fc1ccc(F)c([C@H]2CCCN2c2ccn3ncc(-n4cc(-c5ccncc5F)cn4)c3n2)c1 [I-205],< 0.01 µM
14,"COc1cncc(-c2cnn(-c3cnn4ccc(N5CCC[C@@H]5c5nc(F)ccc5F)nc34)c2)c1 [I-206, (R)-5-(2-(3,6-difluoropyridin-2-yl)pyrrolidin-t-yl)-3-(4-(5-methoxypyridin-3-yi)-1H-pyrazol-1-yl)pyrazolo[1,5-a]pyrimidine]",< 0.01 µM
15,Fc1ccc(F)c([C@H]2CCCN2c2ccn3ncc(-n4cc(-c5ccncc5)cn4)c3n2)n1 [I-207],< 0.01 µM
16,OC1CCN(c2cnn(-c3cnn4ccc(N5CCC[C@@H]5c5cc(F)ccc5F)nc34)c2)C1 (stereo partly shown) [I-208],< 0.01 µM
17,OC1CCN(c2cnn(-c3cnn4ccc(N5CCC[C@@H]5c5ncccc5F)nc34)c2)C1 (stereo partly shown) [I-209],< 0.01 µM
18,Fc1ccc(F)c([C@H]2CCCN2c2ccn3ncc(-n4cc(C5CCOC5)cn4)c3n2)c1 (stereo partly shown) [I-210],< 0.01 µM
19,COc1cncc(-c2cnn(-c3cnn4ccc(N5CCC[C@@H]5c5ncccc5F)nc34)c2)c1 [I-211],< 0.01 µM
20,Fc1ccc(F)c([C@H]2CCCN2c2ccn3ncc(-n4cc(C5=COCC5)cn4)c3n2)c1 [I-212],< 0.01 µM
21,"Fc1ccc(F)c([C@H]2CCCN2c2ccn3ncc(-n4cc(-c5cncc(OC6COC6)c5)cn4)c3n2)c1 [I-214, (R)-5-(2-(2,5-difluorophenyl)pyrrolidin-1-yl)-3-(4-(5-(oxetan-3-yloxy)pyridin-3-yl)-1H-pyrazol-1-yl)pyrazolo[1,5-a]pyrimidine]",< 0.01 µM
22,Fc1cccnc1[C@H]1CCCN1c1ccn2ncc(-n3cc(C(F)(F)F)cn3)c2n1 [I-215],< 0.01 µM
23,"Fc1ccc(F)c([C@H]2CCCN2c2ccn3ncc(-n4cc(-c5ccc(F)nc5)cn4)c3n2)c1 [I-219, (R)-5-(2-(2,5-difluorophenyl)pyrrolidin-1-yl)-3-(4-(6-fluoropyridin-3-yl)-1H-pyrazol-1-yl)pyrazolo[1,5-a]pyrimidine]",< 0.01 µM
24,"COc1ccc(-c2cnn(-c3cnn4ccc(N5CCC[C@@H]5c5nc(F)ccc5F)nc34)c2)cn1 [I-221, (R)-5-(2-(3,6-difluoropyridin-2-yl)pyrrolidin-1-yl)-3-(4-(6-methoxypyridin-3-yl)-1H-pyrazol-1-yl)pyrazolo[1,5-a]pyrimidine]",< 0.01 µM
25,COc1ccc(-c2cnn(-c3cnn4ccc(N5CCC[C@@H]5c5ncccc5F)nc34)c2)cn1 [I-222],< 0.01 µM
26,"Fc1ccc(F)c([C@H]2CCCN2c2ccn3ncc(-n4cc(-c5ccc(OC6COC6)nc5)cn4)c3n2)c1 [I-223, (R)-5-(2-(2,5-difluorophenyl)pyrrolidn-1-yl)-3-(4-(6-(oxetan-3-yloxy)pyridin-3-yl)-H-pyrazol-1-yl)pyrazolo[1,5-a]pyrimidine]",< 0.01 µM

# Further lines, results first:
row,IC50,SMILES
1,< 0.01 µM,"CN(C)Cc1cnn(-c2cnn3ccc(N4CCC[C@@H]4c4cc(F)ccc4F)nc23)c1 [I-186, (R)-1-(1-(5-(2-(2,5-difluor®phenyl)pyrrolidin-1-yl)pyrazolo[1,5-a]pyrimidin-3-yl)-1H-pyrazol-4-yl)-N,N-dimethylmethanamine]"
2,< 0.01 µM,Fc1cccnc1[C@H]1CCCN1c1ccn2ncc(-n3cc(-c4ccccc4)cn3)c2n1 [I-192]
3,< 0.01 µM,Fc1ccc(F)c([C@H]2CCCN2c2ccn3ncc(-n4cc(-c5ccccc5)cn4)c3n2)n1 [I-193]
4,< 0.01 µM,"Cc1cnn(-c2cnn3ccc(N(C)[C@H](C)c4ccccc4)nc23)c1 [I-195, (R)—N-methyl-3-(4-methyl-1H-pyrazol-1-yl)-N-(1-phenylethyl)pyrazolo[1,5-a]pyrimidin-5-amine]"
5,< 0.01 µM,Cc1cnn(-c2cnn3ccc(N[C@H](C)c4ccccc4)nc23)c1 [I-196]
6,< 0.01 µM,CN(C)C(=O)Nc1cnn(-c2cnn3ccc(N4CCC[C@@H]4c4cc(F)ccc4F)nc23)c1 [I-197]
7,< 0.01 µM,"CN(C)S(=O)(=O)Nc1cnn(-c2cnn3ccc(N4CCC[C@@H]4c4cc(F)ccc4F)nc23)c1 [I-198, (R)—N-(1-(5-(2-(2,5-difluorophenyl)pyrrolidin-1-yl)pyrazolo[1,5-a]pyrimidin-3-yl)-1H-pyrazol-4-yl)-1,1-dimethylsulfonylurea]"
8,< 0.01 µM,Fc1cccnc1[C@H]1CCCN1c1ccn2ncc(-n3cc(-c4ccncc4)cn3)c2n1 [I-213]
9,< 0.01 µM,"COc1ccc(F)c([C@H]2CCCN2c2ccn3ncc(-n4cc(C)cn4)c3n2)n1 [I-216, (R)-5-(2-(3-fluoro-6-methoxypyridin-2-yl)pyrrolidin-1-yl)-3-(4-methyl-1H-pyrazoI-1-yl)pyrazolo[1,5-a]pyrimidine]"
10,< 0.01 µM,"Cc1cnn(-c2cnn3ccc(N4CCC[C@@H]4c4nc(N(C)C)ccc4F)nc23)c1 [I-217, (R)-5-fluoro-N,N-dimethyl-6-(1-(3-(4-methyl-1H-pyrazol-1-yl)pyrazolo[1,5-a]pyrimidin-5-yl)pyrrolidin-2-yl)pyridin-2-amine]"
11,< 0.01 µM,CNc1ccc(F)c([C@H]2CCCN2c2ccn3ncc(-n4cc(C)cn4)c3n2)n1 [I-218]
12,< 0.01 µM,"COc1ccc(-c2cnn(-c3cnn4ccc(N[C@H](C)c5cc(F)ccc5F)nc34)c2)cn1 [I-220, (R)—N-(1-(2,5-difluor®phenyl)ethyl)-3-(4-(6-methoxypyridin-3-yl)-1H-pyrazoI-1-yl)pyrazolo[1,5-a]pyrimidin-5-amine]"
13,< 0.01 µM,"CC(=O)c1cnn(-c2cnn3ccc(N4CCC[C@@H]4c4cc(F)ccc4F)nc23)c1 [I-225, (R)-1-(1-(5-(2-(2,5-difluorophenyl)pyrrolidin-1-yl)pyrazolo[1,5-a]pyrimidin-3-yl)-1H-pyrazol-4-yl)ethanone]"
14,< 0.01 µM,COCc1cnn(-c2cnn3ccc(N4CCC[C@@H]4c4cc(F)ccc4F)nc23)c1 [I-226]
